Measured values from patent publication US10759785B2, “Compounds” (ENTERPRISE THERAPEUTICS LIMITED, priority 2016, dated 2020).
Counter-ions that a name gives are not always drawn.

Target: T1, ENaC (Homo sapiens, UniProt P37088+P51168+P51170)
T1 construct: host or cells: primary human bronchial epithelial cells (HBECs) differentiated at an air-liquid interface
T1 sequence (P37088 1-669): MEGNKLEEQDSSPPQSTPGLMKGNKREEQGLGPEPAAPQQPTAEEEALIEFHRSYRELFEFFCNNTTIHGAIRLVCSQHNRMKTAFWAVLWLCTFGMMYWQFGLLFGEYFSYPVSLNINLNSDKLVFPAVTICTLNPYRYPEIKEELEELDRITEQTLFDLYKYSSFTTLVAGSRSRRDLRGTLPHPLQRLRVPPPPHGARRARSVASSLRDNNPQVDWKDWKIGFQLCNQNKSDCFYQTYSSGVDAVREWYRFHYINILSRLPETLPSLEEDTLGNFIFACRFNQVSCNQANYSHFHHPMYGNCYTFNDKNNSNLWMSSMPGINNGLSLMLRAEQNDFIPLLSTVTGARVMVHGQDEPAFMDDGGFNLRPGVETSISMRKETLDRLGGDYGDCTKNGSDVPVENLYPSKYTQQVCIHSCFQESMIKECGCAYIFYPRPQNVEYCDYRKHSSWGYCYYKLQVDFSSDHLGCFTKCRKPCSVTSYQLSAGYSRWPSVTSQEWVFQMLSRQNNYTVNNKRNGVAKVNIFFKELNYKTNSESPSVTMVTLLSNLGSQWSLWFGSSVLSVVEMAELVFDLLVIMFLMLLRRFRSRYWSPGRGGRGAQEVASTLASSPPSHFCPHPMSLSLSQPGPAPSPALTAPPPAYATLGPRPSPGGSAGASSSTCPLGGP
T1 sequence (P51168 1-640): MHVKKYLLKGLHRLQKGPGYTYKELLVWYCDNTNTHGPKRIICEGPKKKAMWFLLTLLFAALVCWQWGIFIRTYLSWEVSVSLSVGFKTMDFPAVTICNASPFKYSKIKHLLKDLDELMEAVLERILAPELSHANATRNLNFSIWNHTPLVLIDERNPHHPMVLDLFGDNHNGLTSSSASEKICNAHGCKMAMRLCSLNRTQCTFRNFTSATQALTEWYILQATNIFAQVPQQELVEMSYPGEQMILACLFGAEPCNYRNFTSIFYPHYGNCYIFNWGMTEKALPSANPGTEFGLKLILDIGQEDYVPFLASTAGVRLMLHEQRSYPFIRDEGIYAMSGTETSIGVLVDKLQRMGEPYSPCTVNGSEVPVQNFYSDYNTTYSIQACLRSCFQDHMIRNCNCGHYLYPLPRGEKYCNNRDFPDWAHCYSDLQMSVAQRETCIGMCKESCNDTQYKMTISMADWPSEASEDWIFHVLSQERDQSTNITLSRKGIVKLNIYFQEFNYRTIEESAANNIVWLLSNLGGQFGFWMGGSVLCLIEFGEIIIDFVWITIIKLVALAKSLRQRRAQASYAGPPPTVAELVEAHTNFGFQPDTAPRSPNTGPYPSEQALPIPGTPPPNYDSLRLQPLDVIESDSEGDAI
T1 sequence (P51170 1-649): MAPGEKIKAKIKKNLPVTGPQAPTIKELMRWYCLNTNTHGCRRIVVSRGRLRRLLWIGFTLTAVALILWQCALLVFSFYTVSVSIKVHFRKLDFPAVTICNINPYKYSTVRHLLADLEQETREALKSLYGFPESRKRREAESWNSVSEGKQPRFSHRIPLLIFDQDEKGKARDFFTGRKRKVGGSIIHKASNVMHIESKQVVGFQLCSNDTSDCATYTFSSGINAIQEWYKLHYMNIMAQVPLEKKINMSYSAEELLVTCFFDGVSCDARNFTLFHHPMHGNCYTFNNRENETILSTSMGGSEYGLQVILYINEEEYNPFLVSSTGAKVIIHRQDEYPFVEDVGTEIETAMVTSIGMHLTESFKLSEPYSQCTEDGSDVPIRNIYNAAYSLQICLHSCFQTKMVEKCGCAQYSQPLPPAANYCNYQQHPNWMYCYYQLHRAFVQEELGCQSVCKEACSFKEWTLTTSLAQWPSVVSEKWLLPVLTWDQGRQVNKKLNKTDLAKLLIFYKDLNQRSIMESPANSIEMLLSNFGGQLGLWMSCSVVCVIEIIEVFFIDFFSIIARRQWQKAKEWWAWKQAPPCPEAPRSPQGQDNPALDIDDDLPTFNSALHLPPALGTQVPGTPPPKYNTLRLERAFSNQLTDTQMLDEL
Experiment: Short circuit current assay to determine ENaC blocker potency in human bronchial epithelial cells
Type: cell-based
Conditions: 50% inhibition of total amiloride-sensitive ISC, HBECs, apical addition; read-out: Averages. ENaC Ic50 μm Avg
Protocol: Example 27—Short Circuit Current Assay to Determine ENaC Blocker Potency in Human Bronchial Epithelial Cells
Human bronchial epithelial cells (HBECs) (Lonza, UK) were cultured using a modification of the method described by Coote et al, (2008). Cells were seeded into plastic T-75 flasks and grown in Bronchial Epithelial Cell Growth Medium (BEGM) (Lonza, UK) supplemented with bovine pituitary extract (52 ng/mL), hydrocortisone (0.5 μg/mL), human recombinant Epidermal Growth Factor (0.5 ng/mL), epinephrine (0.5 ng/mL), transferrin (10 ng/mL), insulin (5 ng/mL), retinoic acid (0.1 ng/mL), triiodothyronine (6.5 ng/mL), gentamycin (50 μg/mL) and amphotericin-B (50 ng/mL). Medium was changed every 48 hours until cells were 90% confluent. Cells were then passaged and seeded (8.25×10^5 cells/insert) onto polycarbonate Snapwell™ inserts (Costar, UK) in differentiation media containing 50% DMEM in BGEM with the same supplements as above but without triiodothyronine and a final retinoic acid concentration of 50 nM (all-trans retinoic acid; Sigma-Aldrich, UK). Cells were maintained submerged for the first 7 days in culture after which time they were exposed to an apical air interface for the remainder of the culture period. From the first day of establishment of an ALI, HBEC were fed with a DMEM:HAMS F-12 (1:1) media containing 2% Ultroser G (Pall BioSepra, France) with gentamycin (50 μg/mL) and amphotericin B (50 ng/mL). Cells were used for short-circuit current assay between days 14-21 after the establishment of the ALI. At all stages of culture, cells were maintained at 37′C in 5% CO2 in an air incubator.
Short-Circuit Current (ISC) Measurements
Snapwell inserts were mounted in Costar Vertical Diffusion Chambers (Costar, UK) and were bathed with continuously gassed Ringer solution (5% CO2 in O2; pH 7.4) maintained at 37° C. containing (in mM): 120 NaCl, 25 NaHCO3, 3.3 KH2PO4, 0.8 K2HPO4, 1.2 CaCl2, 1.2 MgCl2 and 10 glucose. The solution osmolarity was always between 280-300 mOsm/kg H2O for all physiological salt solutions used. Cells were voltage clamped to 0 mV (model EVC4000, WPI). Transepithelial resistance (RT) was measured by applying a 2 mV pulse at 30 s intervals and calculating RT by Ohm's law. Data were recorded using a PowerLab workstation (ADInstruments, UK).
ENaC blocker compounds were added to the apical chamber from a 1000-fold stock solution (prepared in DMSO) to achieve a cumulative concentration response in terms of the inhibition of the basal ISC. At the completion of the concentration response, a supra-maximal concentration of amiloride (10 μM) was added. The concentration of test compound that induced a 50% inhibition of the total amiloride-sensitive ISC (IC50) was calculated using GraphPad Prism v6.05.

Structure (SMILES)	IC50
CCn1c(CNC(=O)c2nc(Br)cnc2N)[n+](CC)c2ccc(-c3cnn(C4CCN(C(=O)OC(C)(C)C)CC4)c3)cc21.[I-] [Example 20, 2-{[(3-amino-6-bromopyrazin-2-yl)formamido]methyl}-6-(1-{1-[(tert-butoxy)carbonyl]piperidin-4-yl}-1H-pyrazol-4-yl)-1,3-diethyl-1H-1,3-benzodiazol-3-ium iodide]	1 nM
CCn1c(CNC(=O)c2nc(Br)cnc2N)[n+](CC)c2ccc(-c3cnn(C4CCNCC4)c3)cc21.Cl.[I-] [Example 21, 2-{[(3-amino-6-bromopyrazin-2-yl)formamido]methyl}-1,3-diethyl-6-[1-(piperidin-4-yl)-1H-pyrazol-4-yl]-1H-1,3-benzodiazol-3-ium hydrochloride iodide]	1 nM
CCn1c(CNC(=O)c2nc(Br)cnc2N)[n+](CC)c2ccc(-c3cnn(C4CCN(C(=N)N)CC4)c3)cc21.O=CO.O=C[O-] [Example 22, 2-{[(3-amino-6-bromopyrazin-2-yl)formamido]methyl}-6-[1-(1-carbamimidoylpiperidin-4-yl)-1H-pyrazol-4-yl]-1,3-diethyl-1H-1,3-benzodiazol-3-ium formic acid formate]	2 nM
CCn1c(CNC(=O)c2nc(Br)cnc2N)[n+](CC)c2ccc(-c3cnn(C4CCN(C[C@H](O)[C@@H](O)[C@H](O)[C@H](O)CO)CC4)c3)cc21.O=CO.[Cl-] [Example 23, 2-{[(3-amino-6-bromopyrazin-2-yl)formamido]methyl}-1,3-diethyl-6-(1-{1-[(2S,3R,4R,5R)-2,3,4,5,6-pentahydroxyhexyl]piperidin-4-yl}-1H-pyrazol-4-yl)-1H-1,3-benzodiazol-3-ium formic acid chloride]	2 nM
CCn1c(CNC(=O)c2nc(Br)cnc2N)[n+](Cc2ccccc2)c2ccc(C(F)(F)F)cc21.O=C[O-] [Example 19, 2-{[(3-Amino-6-bromopyrazin-2-yl)formamido]methyl}-3-benzyl-1-ethyl-6-(trifluoromethyl)-1H-1,3-benzodiazol-3-ium formate]	4 nM
CCn1c(CNC(=O)c2nc(Br)cnc2N)[n+](CC)c2ccc(OCCNC(=O)OC(C)(C)C)cc21.O=C[O-] [Example 24, 2-{[(3-amino-6-bromopyrazin-2-yl)formamido]methyl}-6-(2-{[(tert-butoxy)carbonyl]amino}ethoxy)-1,3-diethyl-1H-1,3-benzodiazol-3-ium formate]	2 nM

The next lines start with the values.

IC50	Structure (SMILES)
4 nM	CCn1c(CNC(=O)c2nc(Br)cnc2N)[n+](CC)c2ccc(C(=O)N[C@H]3CCOC3=O)cc21 [Example 18, 2-{[(3-amino-6-bromopyrazin-2-yl)formamido]methyl}-1,3-diethyl-6-{[(3S)-2-oxooxolan-3-yl]carbamoyl}-1H-1,3-benzodiazol-3-ium formate]
2 nM	CCn1c(CNC(=O)c2nc(Br)cnc2N)[n+](CC)c2ccc(OCCN)cc21.Cl.[Cl-] [Example 25, 2-{[(3-Amino-6-bromopyrazin-2-yl)formamido]methyl}-6-(2-aminoethoxy)-1,3-diethyl-1H-1,3-benzodiazol-3-ium hydrochloride chloride]
74 nM	CCn1c(CNC(=O)c2nc(SC)cnc2N)[n+](C)c2ccc(OC)cc21.[I-] [Example 9, 2-({[3-amino-6-(methylsulfanyl)pyrazin-2-yl]formamido}methyl)-1-ethyl-6-methoxy-3-methyl-1H-1,3-benzodiazol-3-ium iodide]
3 nM	CCn1c(CNC(=O)c2nc(Br)cnc2N)[n+](CC)c2ccc(C(=O)N[C@@H]3CCOC3=O)cc21 [Example 17, 2-{[(3-amino-6-bromopyrazin-2-yl)formamido]methyl}-1,3-diethyl-6-{[(3R)-2-oxooxolan-3-yl]carbamoyl}-1H-1,3-benzodiazol-3-ium formate]
4 nM	CCn1c(CNC(=O)c2nc(Br)cnc2N)[n+](C)c2ccc(C(F)(F)F)cc21.[I-] [Example 13, 2-{[(3-amino-6-bromopyrazin-2-yl)formamido]methyl}-1-ethyl-3-methyl-6-(trifluoromethyl)-1H-1,3-benzodiazol-3-ium iodide]
4 nM	CCn1c(CNC(=O)c2nc(Br)cnc2N)[n+](CCOCCOCCO)c2ccc(OC)cc21.O=C[O-] [Example 4, 2-{[(3-amino-6-bromopyrazin-2-yl)formamido]methyl}-1-ethyl-3-{2-[2-(2-hydroxyethoxy)ethoxy]ethyl}-6-methoxy-1H-1,3-benzodiazol-3-ium formate]
224 nM	CCc1cnc(N)c(C(=O)NCc2n(CC)c3cc(OC)ccc3[n+]2C)n1.[I-] [Example 8, 2-{[(3-amino-6-ethylpyrazin-2-yl)formamido]methyl}-1-ethyl-6-methoxy-3-methyl-1H-1,3-benzodiazol-3-ium iodide]
2 nM	CCn1c(CNC(=O)c2nc(Cl)cnc2N)[n+](C)c2ccc(OC)cc21.[I-] [Example 5, 2-{[(3-amino-6-chloropyrazin-2-yl)formamido]methyl}-1-ethyl-6-methoxy-3-methyl-1H-1,3-benzodiazol-3-ium iodide]
8 nM	CCn1c(CNC(=O)c2nc(C#N)cnc2N)[n+](CC)c2ccc(OC)cc21 [Example 26, 2-{[(3-amino-6-cyanopyrazin-2-yl)formamido]methyl}-1,3-diethyl-6-methoxy-1H-1,3-benzodiazol-3-ium formate]
